Source: paper PMC9056950, “Synthesis and biochemical evaluation of cephalosporin analogues equipped with chemical tethers” (RSC Advances, 2020)
Values after ≈ are worked out from the molar mass of the structure shown.

Tests used:
S. aureus (NCTC 6571) = test system: T1, S. aureus (NCTC 6571); design: species or system Staphylococcus aureus NCTC 6571; broth microdilution growth, OD600 after 16 h, MIC from GraphPad fit; settings: 16 h
T1 construct: NCTC 6571
Protocol: Stock solutions of each compound were prepared in 50% DMSO/water at ×100 the final concentration. In a 96-well plate, 2 μL of the test compounds were added to each well. Each plate included the positive control (750 μg mL^−1 chloramphenicol), the negative control (50% DMSO/water) and media only wells. To each test well was then added 198 μL of the required bacteria stock (OD 0.05). E. coli assays were carried out using LB broth, S. aureus were carried out using tryptic soy broth (TSB). Plates were incubated at 37 °C and the OD600 was measured (Epoch 2 Microplate Spectrophotometer, BioTek) every 30 min over a 17 h period. Tests were carried out in triplicate, the background absorbance was removed using reference wells, and the averages were determined. Dose curves were plotting using the OD600 after 16 h growth vs. compound concentration. MICs were defined as the minimum concentration of compound at which no significant growth was observed after 16 h incubation. MIC values were determined using GraphPad Prism (version 8.3.0). The activity of 1–12 was investigated with growth assays against Staphylococcus aureus (NCTC 6571). S. aureus is a virulent Gram-positive pathogen that can cause a wide range of infections in humans.[29,30] Each compound was tested at 400–6 μM concentrations, with lower concentrations tested as required.

PBP4 = biological target: T2, PBP4 (Bacillus subtilis, UniProt P32959); assay: biochemical; design: gene pbpE; commercial protein (Generon); protein thermal shift assay, melting temperature change of PBP4; settings: read-out: Average DTm/°C
T2 sequence (P32959 1-451): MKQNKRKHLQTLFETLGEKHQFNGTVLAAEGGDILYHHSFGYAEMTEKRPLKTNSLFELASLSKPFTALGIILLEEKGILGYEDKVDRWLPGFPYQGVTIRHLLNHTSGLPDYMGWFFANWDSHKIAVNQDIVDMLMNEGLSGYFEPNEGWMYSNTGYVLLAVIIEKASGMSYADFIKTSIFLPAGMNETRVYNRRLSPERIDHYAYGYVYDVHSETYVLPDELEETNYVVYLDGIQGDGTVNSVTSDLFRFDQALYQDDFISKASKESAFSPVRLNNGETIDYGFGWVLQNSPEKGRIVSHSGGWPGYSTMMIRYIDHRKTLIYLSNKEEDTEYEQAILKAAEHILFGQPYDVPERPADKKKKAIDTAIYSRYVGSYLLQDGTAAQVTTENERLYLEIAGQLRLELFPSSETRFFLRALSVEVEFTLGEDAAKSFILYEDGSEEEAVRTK
Protocol: The thermal shift assay was carried out using the Protein Thermal Shift™ assay kit (Applied Biosystems). 3 μM of purified E. coli PBP3 was incubated with the β-lactam analogues at 300 μM concentration in a mixture containing the Protein Thermal Shift™ Dye. The samples were then heated in a StepOnePlus™ Real-Time PCR System from 25 to 95 °C at a rate of 1 °C min^−1. Tests were carried out in triplicate and the averages plotted as the negative first derivative vs. temperature. Reference wells, i.e. solutions consisting only of only PBP3 with dye, PBP3 only, and dye only, were used as controls. Melting temperature (Tm) values were determined with and without each compound, and the change in melting temperature (ΔTm) was obtained, Fig. 2. The thermal shift assay with PBP4 was carried out using the protocol described for PBP3, with the follow deriviatisation: 500 nM of purified Bacillus subtilis PBP4 was incubated with 50 μM of the β-lactam analogues. A thermal shift assay was used to investigate the binding of the cephalexin analogues to the therapeutic target, PBP, in vitro. This assay provides a fast and inexpensive method of detecting a ligand binding to a protein of interest. Briefly, the protein is gradually heated in the presence of a fluorescent dye that binds non-specifically to the hydrophobic surfaces. […]

Question: What does the source list for `CC1(C)S[C@@H]2[C@H](NC(=O)Cc3ccccc3)C(=O)N2[C@H]1C(=O)O` [compound 11, penicillin]?
Answer: MIC (best-fit) (S. aureus (NCTC 6571)): 0.0977 µM (≈ 0.0327 µg/mL); ΔTm at 50 µM (PBP4): -0.746 °C
